From patent US6528523B2, “Farnesyl protein transferase inhibitors” (Schering Corporation, priority 2000, dated 2003) come the findings set out here.

The target in data set [1] is T1, Farnesyl protein transferase (FPT) (Rattus norvegicus, UniProt Q02293+Q04631).
T1 construct: partially purified from rat brain by ammonium sulfate fractionation followed by Q-Sepharose; from tissue; host or cells: rat brain
The experiment in a line: In vitro enzyme assay: inhibition of farnesyl protein transferase. It counts as biochemical. The settings on record: transfer of [3H]farnesyl from [3H]farnesyl pyrophosphate to Ras-CVLS. As for the experimental part: 1. In Vitro Enzyme Assay:
Human farnesyl protein transferase was also expressed in E. coli, using cDNA clones encoding both the a and b subunits. […] Human farnesyl protein transferase was partially-purified from the soluble protein fraction of E. coli as described above. […] Two forms of val^12-Ha-Ras protein were prepared as substrates for these enzymes, differing in their carboxy terminal sequence. One form terminated in cysteine-valine-leucine-serine (Ras-CVLS) the other in cystein-valine-leucine-leucine (Ras-CVLL). Ras-CVLS is a substrate for the farnesyl protein transferase while Ras-CVLL is a substrate for geranylgeranyl protein transferase I. The cDNAs encoding these proteins were constructed so that the proteins contain an amino-terminal extension of 6 histidine residues. Both proteins were expressed in Escherichia coli and purified using metal chelate affinity chromatography. The radio labelled isoprenyl pyrophosphate substrates, [^3H]farnesyl pyrophosphate and [^3H] geranylgeranyl pyrophosphate, were purchased from DuPont/New England Nuclear.
The reaction was allowed to proceed for 30 minutes at room temperature and then stopped with 0.5 ml of 4% sodium dodecyl sulfate (SDS) followed by 0.5 ml of cold 30% TCA. Samples were allowed to sit on ice for 45 minutes and precipitated Ras protein was then collected on GF/C filter paper mats using a Brandel cell harvester. […] Percent inhibition was calculated relative to the DMSO vehicle control.

In data set [2] the test system is Human tumor cells. Put plainly: Soft agar assay (anchorage-independent growth). The data set is classed as cell-based. The conditions noted are these: colony outgrowth 10-16 days. As for the experimental part: Anchorage-independent growth is a characteristic of tumorigenic cell lines. Human tumor cells are suspended in growth medium containing 0.3% agarose and an indicated concentration of a farnesyl transferase inhibitor. The solution is overlayed onto growth medium solidified with 0.6% agarose containing the same concentration of farnesyl transferase inhibitor as the top layer. After the top layer is solidified, plates are incubated for 10-16 days at 37° C. under 5% CO2 to allow colony outgrowth. After incubation, the colonies are stained by overlaying the agar with a solution of MTT (3-[4,5-dimethylthiazol-2-yl]-2,5-diphenyltetrazolium bromide, Thiazolyl blue) (1 mg/mL in PBS). Colonies are counted and the IC50's determined.

pIC50: −log10 of the molar value.

T1 sequence (Q02293 whole entry, one chain of several): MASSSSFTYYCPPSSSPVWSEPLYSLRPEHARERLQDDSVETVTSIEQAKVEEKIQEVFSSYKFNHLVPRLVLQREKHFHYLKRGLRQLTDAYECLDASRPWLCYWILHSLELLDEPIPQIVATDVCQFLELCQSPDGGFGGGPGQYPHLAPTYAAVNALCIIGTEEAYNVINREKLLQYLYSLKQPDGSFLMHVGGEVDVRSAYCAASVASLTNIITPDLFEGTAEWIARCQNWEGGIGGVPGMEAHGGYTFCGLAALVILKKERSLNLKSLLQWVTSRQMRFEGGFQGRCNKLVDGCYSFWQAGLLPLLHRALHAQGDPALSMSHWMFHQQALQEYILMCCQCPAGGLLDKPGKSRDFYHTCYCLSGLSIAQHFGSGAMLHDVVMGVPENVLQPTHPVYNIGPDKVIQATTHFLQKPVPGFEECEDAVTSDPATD

`O=C(Cc1cc[n+]([O-])cc1)N1CCC(C2c3ncc(Br)cc3C=Cc3cc(Cl)cc(Br)c32)CC1` (single isomer, unassigned) [Compound 11]: the melting point lay within 137 to 139 °C. In data set [1], the pIC50 is 9.49. In data set [2], this compound had a pIC50 of 7.52.
`O=C(Cc1cc[n+]([O-])cc1)N1CCC(C2c3ncc(Br)cc3C=Cc3cc(Cl)cc(Br)c32)CC1` (single isomer, unassigned) [Compound 12] returned a melting point of 142 to 143 °C. This compound also had a pIC50 in data set [1] of under 7.77.
With `CS(=O)(=O)N1CCC(C2c3ncc(Br)cc3C=Cc3cc(Cl)cc(Br)c32)CC1` (single isomer, unassigned) [Compound 13], the melting point lay within 84 to 85 °C. In addition, the pIC50 in data set [1] is 8.48. Also, in data set [2], the pIC50 is under 6.30.
`NC(=O)N1CCC(CC(=O)N2CCC(C3c4ncc(Br)cc4C=Cc4cc(Cl)cc(Br)c43)CC2)CC1` (single isomer, unassigned) [Compound 15] had a melting point of 146 to 147 °C. In data set [1], this compound had a pIC50 of 9.40. Moreover, in data set [2], the pIC50 was 7.30.
`CS(=O)(=O)N1CCC(C2c3ncc(Br)cc3C=Cc3cc(Cl)cc(Br)c32)CC1` (single isomer, unassigned) [Compound 14] returned a melting point of 91 to 92 °C. For the same compound, the pIC50 in data set [1] was under 7.74.
With `NC(=O)N1CCC(CC(=O)N2CCC(C3c4ncc(Br)cc4C=Cc4cc(Cl)cc(Br)c43)CC2)CC1` (single isomer, unassigned) [Compound 16], the melting point was in the range of 142 to 143 °C. In data set [1], this compound gave a pIC50 of 7.80.

In general, pIC50 refers to the negative decadic logarithm of the IC50, by convention in mol/L. The low end stands for a large IC50, the high end for a small IC50. As usually defined, the melting point is the temperature of the solid-liquid transition.
